These results are taken from US9212182B2, “Bicyclic sulfonamide compounds as sodium channel inhibitors” (AMGEN INC., priority 2013, dated 2015).

The term IC50 denotes the midpoint of a concentration-inhibition curve. The low end stands for greater potency in that assay, the high end for weaker potency in that assay.

Chain of Nav 1.7 (Q15858 whole entry): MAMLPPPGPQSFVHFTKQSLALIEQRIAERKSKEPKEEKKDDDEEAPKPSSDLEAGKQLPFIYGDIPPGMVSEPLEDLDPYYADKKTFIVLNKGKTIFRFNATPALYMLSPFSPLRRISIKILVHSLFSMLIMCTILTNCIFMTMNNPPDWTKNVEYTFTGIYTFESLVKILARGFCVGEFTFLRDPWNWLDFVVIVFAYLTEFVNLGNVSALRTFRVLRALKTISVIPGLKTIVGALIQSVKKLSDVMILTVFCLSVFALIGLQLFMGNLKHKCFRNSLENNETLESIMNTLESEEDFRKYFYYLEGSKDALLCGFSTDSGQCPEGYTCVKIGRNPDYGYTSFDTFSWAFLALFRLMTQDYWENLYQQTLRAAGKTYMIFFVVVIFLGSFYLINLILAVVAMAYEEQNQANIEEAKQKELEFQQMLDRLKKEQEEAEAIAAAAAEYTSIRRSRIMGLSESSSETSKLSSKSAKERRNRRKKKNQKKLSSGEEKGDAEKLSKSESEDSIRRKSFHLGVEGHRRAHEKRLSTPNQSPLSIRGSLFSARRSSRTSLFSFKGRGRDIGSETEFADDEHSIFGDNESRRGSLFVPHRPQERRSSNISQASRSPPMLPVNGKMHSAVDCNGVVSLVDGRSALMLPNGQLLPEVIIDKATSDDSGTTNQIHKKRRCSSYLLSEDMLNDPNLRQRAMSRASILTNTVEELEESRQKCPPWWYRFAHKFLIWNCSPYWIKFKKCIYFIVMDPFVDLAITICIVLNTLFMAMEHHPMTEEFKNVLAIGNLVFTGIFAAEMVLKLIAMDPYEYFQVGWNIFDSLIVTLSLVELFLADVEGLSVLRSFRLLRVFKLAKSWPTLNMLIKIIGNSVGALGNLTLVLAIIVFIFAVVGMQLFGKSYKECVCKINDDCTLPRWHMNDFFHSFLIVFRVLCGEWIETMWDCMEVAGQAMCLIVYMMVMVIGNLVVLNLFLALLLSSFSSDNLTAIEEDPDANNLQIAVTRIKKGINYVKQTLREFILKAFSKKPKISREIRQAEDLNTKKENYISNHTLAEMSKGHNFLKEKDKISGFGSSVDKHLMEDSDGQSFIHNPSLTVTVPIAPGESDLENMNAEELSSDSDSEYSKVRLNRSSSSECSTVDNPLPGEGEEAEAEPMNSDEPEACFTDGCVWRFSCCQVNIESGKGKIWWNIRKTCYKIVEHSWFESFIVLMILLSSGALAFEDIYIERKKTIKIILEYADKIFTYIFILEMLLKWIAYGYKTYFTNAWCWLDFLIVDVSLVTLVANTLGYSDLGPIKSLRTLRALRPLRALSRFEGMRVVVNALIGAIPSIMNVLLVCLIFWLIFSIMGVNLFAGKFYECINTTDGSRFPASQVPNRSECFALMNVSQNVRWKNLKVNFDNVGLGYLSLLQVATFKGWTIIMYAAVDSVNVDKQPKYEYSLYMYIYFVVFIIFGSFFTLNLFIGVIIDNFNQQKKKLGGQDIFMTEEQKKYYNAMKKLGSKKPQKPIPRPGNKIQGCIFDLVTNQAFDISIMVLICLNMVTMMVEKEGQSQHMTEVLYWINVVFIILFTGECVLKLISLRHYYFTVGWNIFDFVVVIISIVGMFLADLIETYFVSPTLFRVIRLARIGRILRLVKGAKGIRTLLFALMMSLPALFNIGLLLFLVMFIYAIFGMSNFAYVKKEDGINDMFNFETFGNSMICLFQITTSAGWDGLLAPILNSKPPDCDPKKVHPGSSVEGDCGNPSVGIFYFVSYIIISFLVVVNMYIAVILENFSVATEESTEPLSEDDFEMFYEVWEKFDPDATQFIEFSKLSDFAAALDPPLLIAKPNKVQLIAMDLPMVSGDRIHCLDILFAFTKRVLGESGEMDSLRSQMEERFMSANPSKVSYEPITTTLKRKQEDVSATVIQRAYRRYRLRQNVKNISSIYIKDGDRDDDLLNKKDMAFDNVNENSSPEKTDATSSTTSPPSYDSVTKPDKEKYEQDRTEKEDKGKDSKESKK

The assay concerns the target Nav 1.7 (Homo sapiens (Human), UniProt Q15858). Briefly: in-vitro Nav 1.7 PX (IC50). It is filed as cell-based. The note with it: in-vitro Nav 1.7 PX data.
`COc1ccc(-c2cc(OC)c(-n3c(=O)ccc4cc(S(=O)(=O)Nc5ccon5)ccc43)cc2F)cc1C` [Example 749, 1-(2-fluoro-4′,5-dimethoxy-3′-methyl-4-biphenylyl)-N-3-isoxazolyl-2-oxo-1,2-dihydro-6-quinolinesulfonamide] yielded a concentration for half-maximal inhibition (IC50) of 48 nM.
To `COc1cc(-c2ccc(Cl)cc2)c(F)cc1-n1c(=O)ccc2cc(S(=O)(=O)Nc3ncc(F)cn3)ccc21` [Example 750, 1-(4′-chloro-2-fluoro-5-methoxy-4-biphenylyl)-N-(5-fluoro-2-pyrimidinyl)-2-oxo-1,2-dihydro-6-quinolinesulfonamide] belongs 10 nM; to `COc1cc(-c2ccc(Cl)cc2)c(F)cc1-n1c(=O)ccc2cc(S(=O)(=O)Nc3ccnc(C)n3)ccc21` [Example 751, 1-(4′-chloro-2-fluoro-5-methoxy-4-biphenylyl)-N-(2-methyl-4-pyrimidinyl)-2-oxo-1,2-dihydro-6-quinolinesulfonamide], 67 nM; to `COc1cc(-c2ccc(Cl)cc2)c(F)cc1-n1c(=O)ccc2cc(S(=O)(=O)Nc3cc(C)ncn3)ccc21` [Example 752, 1-(4′-chloro-2-fluoro-5-methoxy-4-biphenylyl)-N-(6-methyl-4-pyrimidinyl)-2-oxo-1,2-dihydro-6-quinolinesulfonamide], 20 nM.
Turning to `COc1cc(-c2ccc(Cl)cc2)c(F)cc1-n1c(=O)ccc2cc(S(=O)(=O)Nc3ncco3)ccc21` [Example 753, 1-(4′-chloro-2-fluoro-5-methoxy-4-biphenylyl)-N-1,3-oxazol-2-yl-2-oxo-1,2-dihydro-6-quinolinesulfonamide], the IC50 was 37 nM.
In turn, `COc1cc(-c2ccc(C#N)cc2)c(F)cc1-n1c(=O)ccc2cc(S(=O)(=O)Nc3ccon3)ccc21` [Example 754, 1-(4′-cyano-2-fluoro-5-methoxy-4-biphenylyl)-N-3-isoxazolyl-2-oxo-1,2-dihydro-6-quinolinesulfonamide] displayed a half-maximal inhibitory concentration (IC50) of 132 nM.
To `COc1cc(-c2ccc(Cl)cc2C(N)=O)c(F)cc1-n1c(=O)ccc2cc(S(=O)(=O)Nc3ccon3)ccc21` [Example 755, 4-chloro-2′-fluoro-4′-(6-(3-isoxazolylsulfamoyl)-2-oxo-1(2H)-quinolinyl)-5′-methoxy-2-biphenylcarboxamide] belongs 351 nM; to `COc1cc(-c2ccc(C3CC3)cc2)c(F)cc1-n1c(=O)ccc2cc(S(=O)(=O)Nc3ccon3)ccc21` [Example 757, 1-(4′-cyclopropyl-2-fluoro-5-methoxy-4-biphenylyl)-N-3-isoxazolyl-2-oxo-1,2-dihydro-6-quinolinesulfonamide], 35 nM; to `COc1cc(-c2cc(Cl)ccc2C#N)c(F)cc1-n1c(=O)ccc2cc(S(=O)(=O)Nc3ccon3)ccc21` [Example 758, 1-(5′-chloro-2′-cyano-2-fluoro-5-methoxy-4-biphenylyl)-N-3-isoxazolyl-2-oxo-1,2-dihydro-6-quinolinesulfonamide], 20 nM.
As for `COc1cc(-c2cc(OC)c(-n3c(=O)ccc4cc(S(=O)(=O)Nc5ccon5)ccc43)cc2F)c(Cl)cn1` [Example 759, 1-(4-(5-chloro-2-methoxy-4-pyridinyl)-5-fluoro-2-methoxyphenyl)-N-3-isoxazolyl-2-oxo-1,2-dihydro-6-quinolinesulfonamide], the figure is 100 nM.
As for `COc1cc(-c2ccc(OC(F)(F)F)cc2)c(F)cc1-n1c(=O)ccc2cc(S(=O)(=O)Nc3ccon3)ccc21` [Example 760, 1-(2-fluoro-5-methoxy-4′-(trifluoromethoxy)-4-biphenylyl)-N-3-isoxazolyl-2-oxo-1,2-dihydro-6-quinolinesulfonamide], the figure is 15 nM; as for `COc1cc(-c2ccc(C(F)(F)F)nc2)c(F)cc1-n1c(=O)ccc2cc(S(=O)(=O)Nc3ccon3)ccc21` [Example 761, 1-(5-fluoro-2-methoxy-4-(6-(trifluoromethyl)-3-pyridinyl)phenyl)-N-3-isoxazolyl-2-oxo-1,2-dihydro-6-quinolinesulfonamide], 120 nM; as for `COc1cc(-c2ccnc(C(F)(F)F)c2)c(F)cc1-n1c(=O)ccc2cc(S(=O)(=O)Nc3ccon3)ccc21` [Example 762, 1-(5-fluoro-2-methoxy-4-(2-(trifluoromethyl)-4-pyridinyl)phenyl)-N-3-isoxazolyl-2-oxo-1,2-dihydro-6-quinolinesulfonamide], 41 nM.
`COc1cc(-c2ccc(OC(F)F)cc2)c(F)cc1-n1c(=O)ccc2cc(S(=O)(=O)Nc3ccon3)ccc21` [Example 763, 1-(4′-(difluoromethoxy)-2-fluoro-5-methoxy-4-biphenylyl)-N-3-isoxazolyl-2-oxo-1,2-dihydro-6-quinolinesulfonamide] showed a half-maximal inhibitory concentration (IC50) of 30 nM.
As for `COc1cc(-c2ccc(Cl)cc2)ccc1-n1c(=O)ccc2cc(S(=O)(=O)Nc3ncc(F)cn3)ccc21` [Example 764, 1-(4′-chloro-3-methoxy-4-biphenylyl)-N-(5-fluoro-2-pyrimidinyl)-2-oxo-1,2-dihydro-6-quinolinesulfonamide], the figure is 40 nM; as for `COc1cc(-c2ccc(Cl)cc2)ccc1-n1c(=O)ccc2cc(S(=O)(=O)Nc3cccnn3)ccc21` [Example 765, 1-(4′-chloro-3-methoxy-4-biphenylyl)-2-oxo-N-3-pyridazinyl-1,2-dihydro-6-quinolinesulfonamide], 112 nM; as for `COc1cc(-c2ccc(Cl)cc2)ccc1-n1c(=O)ccc2cc(S(=O)(=O)Nc3ncco3)ccc21` [Example 766, 1-(4′-chloro-3-methoxy-4-biphenylyl)-N-1,3-oxazol-2-yl-2-oxo-1,2-dihydro-6-quinolinesulfonamide], 37 nM.
To `COc1cc(-c2ccc(Cl)cc2)ccc1-n1c(=O)ccc2cc(S(=O)(=O)Nc3cc(C)ncn3)ccc21` [Example 767, 1-(4′-chloro-3-methoxy-4-biphenylyl)-N-(6-methyl-4-pyrimidinyl)-2-oxo-1,2-dihydro-6-quinolinesulfonamide] belongs 54 nM.
The compound `COc1cc(-c2ccc(Cl)cc2)ccc1-n1c(=O)ccc2cc(S(=O)(=O)Nc3ccnc(C)n3)ccc21` [Example 768, 1-(4′-chloro-3-methoxy-4-biphenylyl)-N-(2-methyl-4-pyrimidinyl)-2-oxo-1,2-dihydro-6-quinolinesulfonamide] gave an IC50 of 52 nM.
As for `COc1cc(-c2ccc(F)cc2)c(F)cc1-n1c(=O)ccc2cc(S(=O)(=O)Nc3ncc(F)cn3)ccc21` [Example 769, 1-(2,4′-difluoro-5-methoxy-4-biphenylyl)-N-(5-fluoro-2-pyrimidinyl)-2-oxo-1,2-dihydro-6-quinolinesulfonamide], the figure is 100 nM; as for `COc1cc(-c2ccc(F)cc2)c(F)cc1-n1c(=O)ccc2cc(S(=O)(=O)Nc3cccnn3)ccc21` [Example 770, 1-(2,4′-difluoro-5-methoxy-4-biphenylyl)-2-oxo-N-3-pyridazinyl-1,2-dihydro-6-quinolinesulfonamide], 33 nM; as for `COc1cc(-c2ccc(F)cc2)c(F)cc1-n1c(=O)ccc2cc(S(=O)(=O)Nc3ncco3)ccc21` [Example 771, 1-(2,4′-difluoro-5-methoxy-4-biphenylyl)-N-1,3-oxazol-2-yl-2-oxo-1,2-dihydro-6-quinolinesulfonamide], 53 nM.
To `COc1cc(-c2ccc(F)cc2)c(F)cc1-n1c(=O)ccc2cc(S(=O)(=O)Nc3cc(C)ncn3)ccc21` [Example 772, 1-(2,4′-difluoro-5-methoxy-4-biphenylyl)-N-(6-methyl-4-pyrimidinyl)-2-oxo-1,2-dihydro-6-quinolinesulfonamide] belongs 232 nM; to `COc1cc(-c2ccc(F)cc2)c(F)cc1-n1c(=O)ccc2cc(S(=O)(=O)Nc3ccnc(C)n3)ccc21` [Example 773, 1-(2,4′-difluoro-5-methoxy-4-biphenylyl)-N-(2-methyl-4-pyrimidinyl)-2-oxo-1,2-dihydro-6-quinolinesulfonamide], 274 nM; to `COc1cc(-c2cc(Cl)cnc2OC)c(F)cc1-n1c(=O)ccc2cc(S(=O)(=O)Nc3ncc(F)cn3)ccc21` [Example 774, 1-(4-(5-chloro-2-methoxy-3-pyridinyl)-5-fluoro-2-methoxyphenyl)-N-(5-fluoro-2-pyrimidinyl)-2-oxo-1,2-dihydro-6-quinolinesulfonamide], 48 nM.
Consider `COc1cc(-c2cc(Cl)cnc2OC)c(F)cc1-n1c(=O)ccc2cc(S(=O)(=O)Nc3cccnn3)ccc21` [Example 775, 1-(4-(5-chloro-2-methoxy-3-pyridinyl)-5-fluoro-2-methoxyphenyl)-2-oxo-N-3-pyridazinyl-1,2-dihydro-6-quinolinesulfonamide], for which the half-maximal inhibitory concentration (IC50) came out at 47 nM.
Take `COc1cc(-c2cc(Cl)cnc2OC)c(F)cc1-n1c(=O)ccc2cc(S(=O)(=O)Nc3ncco3)ccc21` [Example 776, 1-(4-(5-chloro-2-methoxy-3-pyridinyl)-5-fluoro-2-methoxyphenyl)-N-1,3-oxazol-2-yl-2-oxo-1,2-dihydro-6-quinolinesulfonamide]: half-maximal inhibition (IC50) was put at 54 nM.
As for `COc1cc(-c2cc(Cl)cnc2OC)c(F)cc1-n1c(=O)ccc2cc(S(=O)(=O)Nc3cc(C)ncn3)ccc21` [Example 777, 1-(4-(5-chloro-2-methoxy-3-pyridinyl)-5-fluoro-2-methoxyphenyl)-N-(6-methyl-4-pyrimidinyl)-2-oxo-1,2-dihydro-6-quinolinesulfonamide], the figure is 103 nM; as for `COc1cc(-c2cc(Cl)cnc2OC)c(F)cc1-n1c(=O)ccc2cc(S(=O)(=O)Nc3ccnc(C)n3)ccc21` [Example 778, 1-(4-(5-chloro-2-methoxy-3-pyridinyl)-5-fluoro-2-methoxyphenyl)-N-(2-methyl-4-pyrimidinyl)-2-oxo-1,2-dihydro-6-quinolinesulfonamide], 111 nM.
On to `COc1cc(-c2cccc(OC(C)C)c2)ccc1-n1c(=O)ccc2cc(S(=O)(=O)Nc3ccon3)ccc21` [Example 780, N-3-isoxazolyl-1-(3-methoxy-3′-(1-methylethoxy)-4-biphenylyl)-2-oxo-1,2-dihydro-6-quinolinesulfonamide], for which the half-inhibitory concentration (IC50) was 26 nM.
`COc1cc(-c2cccc(OC(F)(F)F)c2)ccc1-n1c(=O)ccc2cc(S(=O)(=O)Nc3ccon3)ccc21` [Example 781, N-3-isoxazolyl-1-(3-methoxy-3′-(trifluoromethoxy)-4-biphenylyl)-2-oxo-1,2-dihydro-6-quinolinesulfonamide] displayed an IC50 of 10 nM.
